Test results as given in ChEMBL document CHEMBL1147379, “Antineoplastic agents, 256. Cell growth inhibitory isocarbostyrils from Hymenocallis” (1993).
Converted amounts (≈) assume the structure as drawn.

Test system: P388
Experiment: Growth inhibition of mouse P388 cells
Type: functional
Conditions: read-out: ED50 (the source's name)

O=C1N[C@H]2[C@H](O)[C@H](O)[C@@H](O)C[C@@H]2c2cc3c(c(O)c21)OCO3
EC50: 0.02 µg/mL (≈ 0.0647 µM)
